# Earlier results in patent US6376534B1, “Compounds useful in pain management” (Astrazeneca Canada Inc., priority 1998, dated 2002).
# Tests used:
# [1] = background statement
# δ receptor = δ receptor (Homo sapiens, UniProt P41143); details: background statement
# Sequence of δ receptor (P41143 whole entry): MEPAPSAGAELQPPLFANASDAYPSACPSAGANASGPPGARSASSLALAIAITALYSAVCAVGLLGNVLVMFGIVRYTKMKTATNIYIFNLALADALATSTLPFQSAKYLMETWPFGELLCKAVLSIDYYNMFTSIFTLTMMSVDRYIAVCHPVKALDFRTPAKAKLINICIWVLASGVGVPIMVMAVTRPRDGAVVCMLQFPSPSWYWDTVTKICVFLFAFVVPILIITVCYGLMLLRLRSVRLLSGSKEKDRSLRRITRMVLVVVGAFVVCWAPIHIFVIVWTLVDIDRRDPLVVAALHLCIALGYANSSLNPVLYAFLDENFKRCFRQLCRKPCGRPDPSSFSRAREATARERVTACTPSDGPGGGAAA
smiles,measurement,setting,value
Oc1ccc2c3c1O[C@H]1c4[nH]c5ccccc5c4C[C@@]4(O)[C@@H](C2)N(CC2CC2)CC[C@]314 [naltrindole],analgesic activity,[1],no analgesic activity
same,selectivity for the δ receptor vs. μ receptor binding,δ receptor,< 10 fold
